Data: patent publication US7846950B2, “Histamine H3 receptor inhibitors, preparation and therapeutic uses” (Eli Lilly and Company, priority 2004, dated 2010)

Biological target: T1, human histamine 3 receptor (Homo sapiens, UniProt Q9Y5N1)
T1 construct: expressed in transfected cells; membranes
Experiment: H3R binding assay (competitive inhibition SPA, [3H] alpha-methylhistamine, HEK293 H3R8 membranes)
Conditions: read-out: Human H3 Receptor Ki
Description: The compounds of the present invention can readily be evaluated by using a competitive inhibition Scintillation Proximity Assay (SPA) based on a H3R binding assay using [3H] α methylhistamine as ligand. Stable cell lines, including but not limited to HEK can be transfected with cDNA coding for H3R to prepare membranes used for the binding assay. The technique is illustrated below (Preparation of Histamine Receptor Subtype Membranes) for the histamine receptor subtypes.
cDNA for the human histamine 1 receptor (H1R) was cloned into a mammalian expression vector containing the CMV promoter (pcDNA3.1(+), Invitogen) and transfected into HEK293 cells using the FuGENE Tranfection Reagent (Roche Diagnostics Corporation). Transfected cells were selected using G418 (500 μ/mL). Colonies that survived selection were grown and tested for histamine binding to cells grown in 96-well dishes using a scintillation proximity assay (SPA) based radioligand binding assay. Briefly, cells, representing individual selected clones, were grown as confluent monolayers in 96-well dishes (Costar Clear Bottom Plates, #3632) by seeding wells with 25,000 cells and growing for 48 hours (37° C., 5% CO2). […] Plates were counted in a Wallac Trilux 1450 Microbeta scintillation counter. […]
cDNA for the human histamine 3 receptor was cloned and expressed as described in (A. Preparation H1R membranes), above. […]

T1 sequence (Q9Y5N1 whole entry): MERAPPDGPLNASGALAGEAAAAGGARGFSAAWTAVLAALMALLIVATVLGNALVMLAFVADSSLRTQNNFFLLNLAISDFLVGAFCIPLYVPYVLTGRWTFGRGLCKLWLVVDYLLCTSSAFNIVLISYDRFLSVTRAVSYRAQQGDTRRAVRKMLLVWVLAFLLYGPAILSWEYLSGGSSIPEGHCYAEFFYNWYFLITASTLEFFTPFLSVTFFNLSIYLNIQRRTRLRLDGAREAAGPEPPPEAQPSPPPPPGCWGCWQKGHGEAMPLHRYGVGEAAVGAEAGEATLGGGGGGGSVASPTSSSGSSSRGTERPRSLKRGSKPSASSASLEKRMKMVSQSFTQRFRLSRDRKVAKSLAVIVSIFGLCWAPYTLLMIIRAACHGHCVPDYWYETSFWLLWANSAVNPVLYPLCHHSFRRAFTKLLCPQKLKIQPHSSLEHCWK

Structure (SMILES)	Ki [nM]
O=C(c1ccc(OCc2ccco2)cc1)N1CCC[C@H]1CN1CCCC1	6.2
C[C@@H]1CCCN1C[C@@H]1CCCN1C(=O)c1ccc(OCc2ncon2)cc1F	1.8
